Data taken from US8349801B2, “Peptide ligands for G-protein coupled receptors” (priority 2006, dated 2013).
No end group written: not given here.

What was measured:
[1] = tested on: Isoproterenol induced rats; assay: Cardiac remodeling induced by Isoproterenol; assay type: in vivo, Wistar rats; conditions: 1 ug/hour/Kg osmotic minipump, partial data
Description: The effect of the peptides […] (SEQ ID NO:10), […]-dimer ([…]) (SEQ ID […]), P33_V (SEQ ID NO:7), P33-dimer (P33_D) (SEQ ID NO:6) on cardiac remodeling, was tested by determining their effect on heart hypertrophy and fibrosis (deposition of collagen I, III, and fibronectin) induced by Isoproterenol. Losartan (an antagonist of the known angiotensin II receptor, AT1, Kucharewicz et al., 2002; Hypertension, (40): 774-779) was used as positive control. The negative control group was treated with vehicle only. Additional control groups included rats not-treated with isoproterenol which were treated with the peptides, with Losartan or with the vehicle. The analysis included determination of the left ventricle mass and morphometry. In addition, immunofuorescence analysis of fibronectin and collagens I and III deposition was performed by confocal microscopy. Animals Acclimatization: Male Wistar rats Age: 13-14 weeks (250 to 300 g) were maintained in the animal facilities for 7 days before the beginning of the experiment. The animals were exposed to a brightness circle of light-dark cycle of 12 hs (day-06:00 to 18:00; night-18:00 to 06:00), and the room temperature was kept at 23±2° C. Heart failure was induced by daily injections of isoproterenol (2 mg/kg/day, subcutaneously) during 7 days. […] Immunofluorescence-labeling and quantitative confocal microscopy was used to investigate the distribution and quantity of collagen types I, III and fibronectin present in the left ventricles. […] Optimal confocal settings (aperture, gain and laser power) were determined at the beginning of each imaging session and then held constant during the analysis of all the samples. […] For quantitative analysis of collagens I, III, and fibronectin, the ImageTool 2.0 image analysis program was used ([…].edu/[…]) to measure the fluorescence intensity in images randomly selected. […]

Mas receptor = target: T1, Mas receptor (Homo sapiens, UniProt P04201); assay: Calcium flux in CHO-K1 cells co-transfected with Mas receptor and Gα16; assay type: cell-based; conditions: dose response
T1 construct: expressed in transfected cells; host or cells: CHO-K1 (ATCC-CCL-61), transient co-transfection
T1 sequence (P04201 1-325): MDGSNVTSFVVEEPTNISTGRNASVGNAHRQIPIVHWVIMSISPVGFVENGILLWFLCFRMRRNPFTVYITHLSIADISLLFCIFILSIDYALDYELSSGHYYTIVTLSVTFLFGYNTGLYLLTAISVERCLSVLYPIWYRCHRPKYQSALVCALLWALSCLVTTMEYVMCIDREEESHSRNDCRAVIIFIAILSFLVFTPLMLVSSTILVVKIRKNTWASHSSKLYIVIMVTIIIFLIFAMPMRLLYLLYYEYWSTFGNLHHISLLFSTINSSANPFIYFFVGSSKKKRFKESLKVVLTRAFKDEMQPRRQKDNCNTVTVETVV
Description: The assay was carried out in CHO cells were transiently transfected with the GPCR of choice, by utilizing the promiscuous Gα16 to divert signaling to the Gq pathway, thus enabling readout of GPCR activation by testing for Calcium flux as described by Liu et al 2003 (Biomol Screen 8, 39-49).
All the peptides thus obtained were tested for their ability to change calcium flux in CHO—K1 cells (ATCC-CCL-61) transiently co-transfected with an expression vector containing the GPCR of choice and expression vector containing the Gα16 encoding cDNA. Expression constructs containing cDNA clones for MrgX1, MrgX2, Mas or FPRL1 were commercially obtained in one of the following expression vectors: pcDNA3.1, pCMV6, or MO2.
Transient transfections were performed using CHO—K1 cells as host cells. Cells (12 million) were plated into T75 flasks on the day preceding transfection. Cells were transfected with the appropriate GPCR expression vector and with a vector expressing Gα16 using a lipid-based reagent, MTI, according to the manufacturer's recommendation. Cells were transfected for 5 hours, then re-plated into 96-well dishes (60,000 cells per well) and grown overnight.
On the day of the experiment, cells were loaded with Fluo4-NW (Invitrogen) according to the manufacturer's recommendation. Plates were loaded into a FlexStation™ (Molecular Devices) plate reader and fluorescence was monitored. Seventeen seconds following initiation of reading, cells were stimulated with the indicated agonist/compound at final concentration of 1 μM. Each 96 well plate contained cells transfected with one GPCR expression vector and each of the examined peptides was tested in triplicate.
We defined a hit as a peptide which elicited a clear and distinct increase in intracellular calcium that is clearly visible and statistically significant upon examination of the calcium trace for at least two repeats. The criterion for statistical significance was a p-value lower than 0.001 in a t-test comparing the levels of calcium before and after peptide addition.
Based on dose response experiments, EC50 best fit values were calculated by non-linear regression of sigmoidal dose-response curves, using Prism version 4 (GraphPad Software Inc., San Diego, Calif.). The formulae for the sigmoidal dose-response curves was defined as Y=Bottom+(Top−Bottom)/(1+10^ (LogEC50−X)*HillSlope))
The ability of Peptides to change calcium flux was examined in CHO—K1 cells co-transfected with Mas receptor and Gα16.

“FLGYCIYLNRKRRGDPAFKRRLRD (also: dimer via cysteine; listed as Homo sapiens) [Peptide P61_dimer]” was tested, and the “effect as measured by Fibronectin deposition” value ([1]; 3 out of 6 animals) was “not significant”, the “heart hypertrophy induced by Isoproterenol, as indicated by deposition of fibronectin, Collagen I and Collagen III” value ([1]; 3 out of 6 animals of each group) was “effective in reducing the heart hypertrophy” and the “ability to induce calcium flux, P61-related peptides compared” value (Mas receptor) was “more potent than the monomeric P61 peptides”.
